Read-outs that look alike come from different tables or passages of the source.

Data on 13 compounds can be found in US10538475B2, “Amphiphilic cyclobutenes and cylobutanes” (priority 2012, dated 2020).

The subject of data set [1] is M. smeg (mc2155). The conditions noted are these: M. tb vs M. smeg; cited from earlier work.
Data set [2] concerns M. smeg (mc2155). The experiment in a line: MIC by 96-well microplate twofold dilution, M. smeg. It counts as cell-based. To be noted: for MIC: M. smeg mc2155, minimal media, 3-4 day; for fold differences between MICs for M. smeg and M. tb: M. smeg vs M. tb.
For a further data set, the system named is M. tb (CDC1551). Briefly: MIC by 96-well microplate twofold dilution, M. tb CDC1551. Type of data set: cell-based, Mycobacterium tuberculosis. To be noted: minimal media, 5-7 weeks.
The test system of a further data set is M. tb (H37Rv). The experiment in a line: MIC by 96-well microplate twofold dilution, M. tb H37Rv. It counts as cell-based, Mycobacterium tuberculosis. To be noted: minimal media, 5-7 weeks.
Data set [3] is described as follows: 1D 1H NMR aqueous stability and concentration dependent micelle formation. Type of data set: physicochemical. To be noted: 100 μM, 500 μM, 750 μM, and 1000 μM; FIG. 2. As to the method: One-dimensional (1D)^1H-NMR spectroscopy was used to verify the chemical purity, aqueous stability, and concentration dependent micelle formation of eleven fatty acid analogs. Each compound was dissolved in deuterated dimethyl sulfoxide (DMSO-d6) to obtain a stock concentration of 20 mM. Four different concentrations were prepared from the stock solutions for NMR analysis: 1.00 mM, 750 μM, 500 μM, 100 μM. All NMR samples consisted of 600 μL of a deuterated 50 mM potassium phosphate buffer at pH 7.2 with 50 μM of 3 (trimethylsilyl) propionic-2,2,3,3-d4 acid sodium salt (TMSP). Each 600 μL NMR sample contains 30 μL (5%) of DMSO-d6 and was transferred to a 5 mm NMR tube for analysis.
A Bruker Avance DRX 500-MHz spectrometer equipped with a 5 mm triple-resonance cryoprobe (^1H, ^13C, ^15N) with a z-axis gradient was utilized for all 1D ^1H NMR experiments. Acquisition of NMR spectra was automated using a BACS-120 sample changer and Icon NMR software. All spectra were acquired at 298.15 K with 16 dummy scans, 64 scans, 32K data points, a spectral width of 5482.46 Hz, and a relaxation delay of 1.5 s. The NMR spectra were processed and analyzed using ACD/1D NMR Manager (Advanced Chemistry Development). The resulting 1D ^1H NMR spectra were visually inspected for evidence of micelle formation (peak broadening), or chemical instability/impurities (additional peaks). […]

The next data set has as its system RAW 264.7 macrophages. To be noted: cited from earlier work.
The mark [4] stands for this setting: highest concentration tested 1024 μg/ml.
[5] abbreviates: highest concentration tested 256 μg/ml.
Where [6] appears, read: highest concentration tested 1024 μg/ml, read-out: MIC.
Setting [7] is: Mycobacterium tuberculosis, highest concentration tested 256 μg/ml, read-out: MIC.
The mark [8] stands for this setting: Mycobacterium tuberculosis, H37RV, highest concentration tested 256 μg/ml, read-out: MIC.

For the compound `NNC(=O)c1ccncc1` [Isoniazid], the “fold more potent inhibition of M. tb compared with M. smeg” value with M. smeg (mc2155) [1] was 100 fold.

One may read the MIC as the lowest concentration found to suppress growth. For “2-(Octanoic acid, 8-yl) 3-octylcyclobutanol and 3-(Octanoic acid, 8-yl) 2-octylcyclobutanol [Compound 4]”, the MIC against M. smeg (mc2155) [2] (setting [4]) came to 256 µg/mL; with M. smeg (mc2155) [2] (read-out: MIC) it was 784 µM; against M. tb (CDC1551) (setting [5]), 8 µg/mL; with M. tb (H37Rv) (setting [5]), 2 µg/mL. Further, the “fold differences between MICs for M. smeg and M. tb” value (“fold differences between MICs” below) in the data set on M. smeg (mc2155) [2] is “five to ten”.

Turning to `O=C(O)CCCCCCCC1C=CC1` (stereo not shown) [Compound 8, 8-(2-Cyclobuten-1-yl)-octanoic acid], the minimum inhibitory concentration (MIC) in the data set with M. smeg (mc2155) [2] (setting [6]) amounted to 64 µg/mL; in the data set with M. smeg (mc2155) [2] (read-out: MIC), 326 µM; in the data set with M. tb (CDC1551) (setting [7]), 4 µg/mL; in the data set on M. tb (H37Rv) (setting [8]), 4 µg/mL. In the data set with M. smeg (mc2155) [2], the “fold differences between MICs” value is listed as “five to ten”. Further, the “micelle formation (peak broadening relative to TMSP)” value in data set [3] is given as “No micelle formation”.

As for `O=C(O)CCCCCCCC1CC(O)C1` (stereo not shown) [Compound 11, 3-(Octanoic acid)cyclobutanol], the MIC is around 313 µM with M. smeg (mc2155) [2]; 64 µg/mL with M. smeg (mc2155) [2] (setting [4]); 302 µM in the data set on M. smeg (mc2155) [2] (read-out: MIC); 64 µg/mL in the data set on M. tb (CDC1551) (setting [5]); 299 µM in the data set with M. tb (CDC1551) (read-out: MIC); 128 µg/mL against M. tb (H37Rv) (setting [5]). Also, the MIC in the data set on M. tb (H37Rv) (read-out: MIC) was found to be 597 µM.

Take `O=C(O)CCCCCCCC1CCC1` [Compound 9, 8-Cyclobutyloctanoic acid]: the minimal inhibitory concentration (MIC) in the data set on M. smeg (mc2155) [2] (setting [6]) is 128 µg/mL; in the data set with M. smeg (mc2155) [2] (read-out: MIC) it was 645 µM; in the data set on M. tb (CDC1551) (setting [7]) it was 4 µg/mL; in the data set on M. tb (H37Rv) (setting [8]) it was 4 µg/mL. Besides, in the data set on M. smeg (mc2155) [2], the “fold differences between MICs” value is recorded as “five to ten”.

Regarding `CCCCCCCC/C=C\CCCCCCCC(=O)O` [oleate, oleic acid], the “concentrations displaying some toxicity to this cell line” value with RAW 264.7 macrophages is at least 200 µM.

As to `CCCCCCCCCC(=O)O` [Decanoic acid (DA), Decanoic acid, reference compound], the MIC stood at 128 µg/mL with M. smeg (mc2155) [2] (setting [6]); 752 µM in the data set with M. smeg (mc2155) [2] (read-out: MIC); 32 µg/mL in the data set on M. tb (CDC1551) (setting [7]); 188 µM in the data set on M. tb (CDC1551) (Mycobacterium tuberculosis, read-out: MIC); 32 µg/mL with M. tb (H37Rv) (setting [8]); 188 µM in the data set with M. tb (H37Rv) (Mycobacterium tuberculosis, H37RV, read-out: MIC).

For `CCCCCCCC[C@H]1CC[C@H]1CCCCCCCC(=O)O` (relative stereo) [Compound 2, cis-9,10-Ethanooctadecanoic acid], the MIC against M. smeg (mc2155) [2] was around 313 µM; against M. smeg (mc2155) [2] (setting [4]), 64 µg/mL; with M. smeg (mc2155) [2] (read-out: MIC), 206 µM; in the data set on M. tb (CDC1551) (setting [5]) it was 8 µg/mL; in the data set on M. tb (H37Rv) (setting [5]), 16 µg/mL; with M. tb (H37Rv) (read-out: MIC), 52 µM. For the same compound, in the data set on M. smeg (mc2155) [2], the “fold differences between MICs” value is recorded as “five to ten”.

With `CCCCCCCCC1=C(CCCCCCCC(=O)O)CC1` [Compound 6, 1-(Octanoic acid, 8-yl)-2-octylcyclobutene], the MIC was found to be 256 µg/mL against M. smeg (mc2155) [2] (setting [4]); 830 µM in the data set with M. smeg (mc2155) [2] (read-out: MIC); 128 µg/mL in the data set with M. tb (CDC1551) (setting [5]); 415 µM with M. tb (CDC1551) (read-out: MIC); 16 µg/mL against M. tb (H37Rv) (setting [5]); 52 µM in the data set on M. tb (H37Rv) (read-out: MIC). For the same compound, the “fold differences between MICs” value in the data set on M. smeg (mc2155) [2] is on record as “five to ten”.

For the compound “2-(Octanoic acid, 8-yl) 3-octylcyclobutanone and 3-(octanoic acid, 8-yl) 2-octylcyclobutanone [Compound 3]”, the minimum inhibitory concentration (MIC) in the data set on M. smeg (mc2155) [2] is around 313 µM; against M. smeg (mc2155) [2] (setting [4]), 64 µg/mL; in the data set on M. smeg (mc2155) [2] (read-out: MIC) it was 197 µM; in the data set on M. tb (CDC1551) (setting [5]), 64 µg/mL; in the data set on M. tb (CDC1551) (read-out: MIC), 197 µM; against M. tb (H37Rv) (setting [5]), 32 µg/mL. Moreover, the MIC in the data set with M. tb (H37Rv) (read-out: MIC) was found to be 99 µM.

Turning to `N[C@@H]1CONC1=O` [DCS, D-cycloserine, reference compound], the MIC in the data set on M. smeg (mc2155) [2] (setting [4]) was 75 µg/mL; in the data set on M. smeg (mc2155) [2] (read-out: MIC), 313 µM; in the data set on M. tb (CDC1551) (setting [5]) it was 12.5 µg/mL; with M. tb (CDC1551) (read-out: MIC), 122 µM; against M. tb (H37Rv) (setting [5]) it was 12.5 µg/mL; in the data set with M. tb (H37Rv) (read-out: MIC) it was 122 µM.

“2-Chloro-4-(octanoic acid, 8-yl) 3-octylcyclobutanone-; 2-Chloro-3-(octanoic acid, 8-yl) 4-octylcyclobutanone [Compound 5]”: the minimal inhibitory concentration (MIC) with M. smeg (mc2155) [2] (setting [4]) was 256 µg/mL; with M. smeg (mc2155) [2] (read-out: MIC) it was 713 µM; against M. tb (CDC1551) (setting [5]), 256 µg/mL; in the data set with M. tb (CDC1551) (read-out: MIC) it was 713 µM; in the data set on M. tb (H37Rv) (setting [5]), 16 µg/mL; in the data set with M. tb (H37Rv) (read-out: MIC) it was 45 µM.

For the compound `O=C(O)CCCCCCCC1CC(=O)C1` [Compound 10, 3-(Octanoic acid, 8-yl)cyclobutanone], the minimum inhibitory concentration (MIC) with M. smeg (mc2155) [2] (setting [4]) was 128 µg/mL; in the data set on M. smeg (mc2155) [2] (read-out: MIC) it was 603 µM; against M. tb (CDC1551) (setting [5]), 128 µg/mL; in the data set on M. tb (CDC1551) (read-out: MIC), 603 µM; in the data set on M. tb (H37Rv), 1,206 μM; in the data set with M. tb (H37Rv) (setting [5]), 256 µg/mL.
